# Laboratory results: publication PMC7349888, “Synthesis and Evaluation of Dodecaboranethiol Containing Kojic Acid (KA-BSH) as a Novel Agent for Boron Neutron Capture Therapy” (Cells, 2020)
# What was measured:
# F98 rat glioma cells = assay: In vitro 10B uptake in F98 cells (ICP-AES); assay type: cell-based; conditions: 24 h incubation in DMEM with 1 mM boron compound
# Description: (§1) For the in vitro ^10B uptake study, B16 mouse melanoma cells, C6 rat glioma cells, and F98 rat glioma cells were used. B16 and C6 cells were used for in vitro testing at Osaka Prefecture University. Based on results from initial in vitro screening, the in vitro ^10B uptake study using F98 glioma cells were performed at Osaka Medical College. Four hundred thousand cells were seeded in a tissue culture dish (100 × 20 mm; Becton Dickinson, Franklin Lakes, NJ, USA) with DMEM supplemented with 10% FBS and 10% penicillin and streptomycin at 37 °C in a 5% CO2 atmosphere. After incubation for 4 days at 37 °C, the medium was removed, and DMEM with 10% FBS containing 1 mM KA-BSH, BSH, or BPA was added to each dish. The cells were incubated for an additional 24 h at 37 °C. The medium was then removed, and the cells were washed twice with 4 °C phosphate-buffered saline (PBS) and detached with trypsin–ethylenediamine tetraacetic acid solution. PBS was then added, and cells were digested overnight with 1 N nitric acid solution (Wako Pure Chemical Industries, Osaka, Japan), and ^10B uptake was determined by inductively coupled plasma atomic emission spectrometry (ICP-AES) using an iCAP6000 emission spectrometer (Hitachi High-Technologies, Tokyo, Japan).
# F98 glioma bearing rats = assay: In vivo BNCT therapeutic experiment, neutron irradiation at KURRI; set-up: species or system rat
# Text: All animal experimental procedures were approved by the Animal Use Review Board and Ethical Committee of Osaka Medical College (No. 25092, 28 October 2015) and Kyoto University Research Reactor Institute (KURRI, No. 25030-13, 1 April 2015), and performed following the Guide for the Care and Use of Laboratory Animals. Eight-week-old, male Fischer 344 rats weighing between 200 and 250 g were used (Japan SLC, Inc. Shizuoka, Japan). Rats were anesthetized with an intraperitoneal (ip) injection of a mixture of medetomidine 0.15 mg, midazolam 2 mg, and butorphanol 2.5 mg/kg body weight (bw). The head of each rat was fixed with a stereotactic frame (Model 900; David Kopf Instruments, Tujunga, CA, USA). The scalp was incised at the midline and a small burr hole was drilled into the skull (1 mm posterior and 4 mm right-lateral to the bregma), using an electric drill. And then, F98 glioma cells were injected into the brain using a 25 µL Hamilton microsyringe with a 26-gauge needle (model 1700 RN, Hamilton Bonaduz AG, Bonaduz, Switzerland). The needle was inserted at a 5 mm depth from the skull and F98 cells were diluted in 10 µL of DMEM containing low-gelling temperature agarose at a concentration of either 10^3 for therapeutic experiments or 10^5 cells for biodistribution experiments. They were injected over 30 s using an automatic infuser pump. The needle entry hole was immediately sealed with bone wax and the incised scalp was closed with 3-0 silk sutures (Ethicon, North Ryde, NSW). […]
# Therapeutic experiments for BNCT were performed 14 days after stereotactic implantation of 10^3 F98 glioma cells. […] The therapeutic effect of BNCT was evaluated by the survival time of the animals. […]
# The means and standard deviations (SD) were computed for ^10B concentrations of F98 glioma cells and tissues of Fischer rats bearing intracerebral implants of the F98 glioma. […] Statistical differences between means were calculated using the Student’s unpaired t-test. In therapeutic experiments, the median survival time (MST) was calculated for each group using the Kaplan–Meier estimate. […]
# B16 mouse melanoma cells = assay: In vitro boron uptake in B16 cells; assay type: cell-based; conditions: Figure S1
# Description: as §1
# C6 rat glioma cells = assay: In vitro boron uptake in C6 cells; assay type: cell-based; conditions: Figure S1
# Description: as §1
# [1] = 10 mg 10B/kg iv, BNCT 1 h after administration
substance,measurement,setting,value
S-(2-(5-hydroxy-4-oxo-4H-pyran-2-yl) methyl) Thioundecahydro-Closo- Dodecaborate (2-) Disodium Salt [KA-BSH],10B concentration of F98 rat glioma cells,F98 rat glioma cells,0.821 ± 0.047 µg 10B/10^7 cells
same,"Survival Time, Median (MST)",F98 glioma bearing rats; [1],36.0 days
same,"Survival Time, Range",F98 glioma bearing rats; [1],32 – 38
same,%ILS Median (percent increase life span),F98 glioma bearing rats; relative to median survival time of untreated controls,22.0%
same,boron uptake into cancer cells,B16 mouse melanoma cells,taken up into cancer cells
same,boron uptake into cancer cells,C6 rat glioma cells,taken up into cancer cells
